# In US8591876B2, “Methods of decreasing sebum production in the skin” (priority 2010, dated 2013):
# Experiments:
# [1] = system: human sebocytes (SEB-1); assay: Cytotoxicity to human sebocytes (SEB-1), Cell Titer-Blue Cell Viability Assay; assay type: cell-based; settings: in reference to cells incubated with media alone
# [2] = system: normal human keratinocytes (NHEK); assay: Cytotoxicity to normal human keratinocytes (NHEK), Cell Titer-Blue Cell Viability Assay; assay type: cell-based; settings: in reference to cells incubated with media alone
structure (smiles),measurement,setting,value
"N[C@@H](CCC(=O)N[C@@H](CSN=O)C(=O)NCC(=O)O)C(=O)O [GSNO, S-nitrogluthione]",% SEB-1 Killed,"[1]; 0.12 mg/ml, 24 hr",6%
same,% SEB-1 Killed,"[1]; 0.12 mg/ml, 48 hr",11%
same,% SEB-1 Killed,"[1]; 0.12 mg/ml, 72 hr",19%
same,% SEB-1 Killed,"[1]; 0.6 mg/ml, 24 hr",48%
same,% SEB-1 Killed,"[1]; 0.6 mg/ml, 48 hr",68%
same,% SEB-1 Killed,"[1]; 0.6 mg/ml, 72 hr",67%
same,% SEB-1 Killed,"[1]; 1.2 mg/ml, 24 hr",85%
same,% SEB-1 Killed,"[1]; 1.2 mg/ml, 48 hr",97%
same,% SEB-1 Killed,"[1]; 1.2 mg/ml, 72 hr",98%
same,% NHEK Killed,"[2]; 0.12 mg/ml, 24 hr",4%
same,% NHEK Killed,"[2]; 0.12 mg/ml, 48 hr",5%
same,% NHEK Killed,"[2]; 0.12 mg/ml, 72 hr",15%
same,% NHEK Killed,"[2]; 0.6 mg/ml, 24 hr",8%
same,% NHEK Killed,"[2]; 0.6 mg/ml, 48 hr",−11%
same,% NHEK Killed,"[2]; 0.6 mg/ml, 72 hr",−3%
same,% NHEK Killed,"[2]; 1.2 mg/ml, 24 hr",34%
same,% NHEK Killed,"[2]; 1.2 mg/ml, 48 hr",53%
same,% NHEK Killed,"[2]; 1.2 mg/ml, 72 hr",44%
